Results on one compound are retold here after patent US11572590B2, “Methods for evaluating tumor cell spheroids using 3D microfluidic cell culture device” (Dana-Farber Cancer Institute, Inc., priority 2017, dated 2023).

SMILES strings stand for the structures.

Experiment [1] deals with MC38 MDOTS. In words: Live/dead (AO/PI) imaging of MC38 MDOTS in 3D microfluidic culture. The class given is cell-based, murine. The conditions noted are these: Cmpd1 (1 μM) + αPD-1; did not reach significance vs single-agent PD-1. How it is done: Fresh tumor specimens (murine and human patients) were received in media (DMEM) on ice and minced in a 10 cm dish (on ice) using sterile forceps and scalpel. Minced tumor was resuspended in DMEM ([…], […] sodium pyruvate, 1:100 penicillin-streptomycin) (Corning CellGro, Manassas, Va.) +10% FBS (Gemini Bio-Products, West Sacramento, Calif.), 100 U/mL collagenase type IV (Life Technologies, Carlsbad, Calif.), and 15 mM HEPES (Life Technologies, Carlsbad, Calif.), except for CT26 tumors that were prepared in RPMI. Samples were pelleted and resuspended in 10-20 mL media. Red blood cells were removed from visibly bloody samples using RBC Lysis Buffer (Boston Bio-Products, Ashland, Mass.). […]
Dual labeling was performed by loading microfluidic device with Nexcelom ViaStain™ AO/PI Staining Solution (Nexcelom, CS2-0106). Following incubation with the dyes (20 minutes at room temperature in the dark), images were captured on a Nikon Eclipse 80i fluorescence microscope equipped with Z-stack (Prior) and CoolSNAP CCD camera (Roper Scientific). […] Live and dead cell quantitation was performed by measuring total cell area of each dye. […]

The subject of experiment [2] is CT26 and EMT6 cells. As to the kind of experiment: Re-implantation of CT26 and EMT6 cells into mice with exceptional responses (immunologic memory). It is filed as in vivo, mouse. The conditions noted are these: previous αPD-L1 + Compound 1. How it is done:
Combination studies were performed by vivoPharm (Hummelstown, Pa., USA). All procedures used in the performance of these studies were carried out in accordance with vivoPharm's Standard Operating Procedures, with particular reference to US_SOPvP_EF0314 “General Procedures for Efficacy Studies.” CT26 colon carcinoma cells (1×10^6 cells/mouse in 100 μL, passage 2-3) were re-suspended in serum-free DMEM and implanted in the upper right flank of 11-12 week old female Balb/c mice (Charles River Laboratories). Mice were randomized into four groups of 10 using a matched pair distribution method based on tumor size for CT26. Treatment was initiated 12 days post-inoculation with mean tumor volume at start of dosing of 125.85 mm^3. Vehicle or Compound 1 (40 mg/kg) was administered by oral gavage daily for 26 days and isotype control or a reverse chimera anti-PD-L1 cloned from literature reports (e.g., Deng, R. et al. MAbs (2016), the content of which is incorporated herein by reference in entirety) and placed into a mouse IgG1 framework (10 mg/kg) was administered every 5 days for a total of six doses. Investigators were not blinded to treatment groups. […] Mice were sacrificed on Day 13 and lung metastases were quantified (small ≤1 mm, medium >1 mm and ≤3 mm, large >3 mm). No large lung metastases were detected.

In the case of `N#Cc1cc(-c2ncnc(Nc3ccc(N4CCN(C5COC5)CC4)cc3)n2)ccc1OC1CCOCC1` [Compound 1, 5-(4-((4-(4-(oxetan-3-yl)piperazin-1-yl)phenyl)amino)-1,3,5-triazin-2-yl)-2-((tetrahydro-2H-pyran-4-yl)oxy)benzonitrile], in experiment [1], the “ex vivo killing of MC38 MDOTS, combination treatment” value is “enhanced ex vivo killing”. Besides, the “growth of reimplanted CT26 in mice with exceptional responses to combination therapy” value in experiment [2] is “no growth”.
